Assays:
[1] = tested on: primary human fibroblasts from patients with LHON; experiment: Oxidative stress-induced cell death (BSO) assay, LHON patient fibroblasts; type: cell-based; conditions: Homo sapiens, Fibroblast; fibroblasts derived from LHON patients, 100 μM BSO; read-out: EC50, protection from oxidative stress-induced cell death
Text: To determine the effective concentration of the compounds (the concentrations that protect patient cells against oxidative stress-induced cell death) the applicant established an assay using stressed primary human fibroblasts from patients with Leigh syndrome, MELAS or LHON diseases. Utilising the inherent oxidative stress of fibroblasts from patients with mitochondrial disease, their oxidative burden was further increased by depleting cellular glutathione with an inhibitor of glutathione synthesis, L-buthionine-(S,R)-sulfoximine (BSO). […] Cells were seeded at a density of 3000 cells/well in a 96-well format and incubated with increasing concentrations of compounds in combination with BSO (100 μM, Sigma-aldrich). One day after treatment, the cells were washed twice and stained with a solution of 5 μM calcein-AM (Life technologies C3100MP) during 25 min in 199 medium without phenol red (Life technologies, 11043-023) at room temperature. After 2 washes with PBS (Phosphate buffered saline) the plate was read on a fluorescence plate reader (Fluostar Omega, BMG labtech) and the percentage of cell viability determined as a function of fluorescence intensity.

[2] = male, human, in vivo
Description: (§1) The changes from baseline (pre-dose assessment on Day 1) for body weight, physical examinations, vital signs, ECG-variables and clinical laboratory variables were determined for each time point. Treatment-emergent laboratory and ECG abnormalities as well as adverse events were monitored throughout the study, up to 28 Days after the last study drug intake.
(§2) The goal of this post-hoc optimization study was to repeat the ECG assessment with an highly automated computer-assisted approach where in addition to the re-evaluation of standard intervals (PR, QRS and QT intervals), a set of parameters describing repolarization morphology were considered. The morphology indices were the TpTe interval (interval from the T wave apex to the end of the T wave), the TpTe/QT index (the ratio between the TpTe interval and the QT interval), Tamp (the amplitude in microvolt units of the T wave) and TSym (an index of repolarization morphology based on the symmetry of the T wave).
(§3) ECGs were digitally recorded using a Schiller AT104 ECG machine (500 Hz, 1 μV). Cardiac interval measurements were performed on the Global Superimposed Median Beat (GSMB), a methodology that allows measurements that consider each of the 12 individual median beats. This measurement methodology ensures that the PR, QRS, and QT interval are measured from the earliest onset in any lead to the latest deflection in any lead. Cardiologist overview of the computer-based measurements is based on the superimposed (overlapped) display of the individual median beats, to assure measurements are performed at the earliest onset of any viable lead to the latest offset of any viable lead.
The RR interval used for heart-rate correction of the QT interval (QTcB) was based on all the beats in the ten second recording. […]
For the pre-dose (baseline) ECGs, all parameters per time point were calculated as the averages of the triplicate ECGs. […]
The over-reading cardiologist provided a clinical interpretation for each ECG at each time point. […]

[3] = ECG post-hoc analysis, MAD study; type: in vivo, human; design: QTcF: largest median baseline increase / QTcF: largest individual increase: unit not given here
Description: as §1, §2, §3
The RR interval used for heart-rate correction of the QT interval (QTcB) was based on all the beats in the ten second recording.
Other cardiac parameters were computed from the 12-lead vector magnitude VM (e.g. the square root of the sum of squares at each digital sample) computed from the individual median beats. On the VM lead, the apex of the T wave is placed and used to compute the TpTe interval (using the end of the T wave from the GSMB) and the T wave amplitude (height in microvolt of the VM T peak from the isoelectric line). […] T wave symmetry index was computed using a proprietary approach based on Gaussian Mesa function modeling (GMF) of the repolarization waves (Badilini F et al. J Electrocardiol 2008, 41:588-594). Briefly, the ascending and descending phases of the VM T wave are modeled by two independent half-Gaussian curves (see FIG. 3). The standard deviations of these functions (σ1 and σ2) and indicators of the ascending/descending speed and their ratio is an index of symmetry (TSym=σ1/σ2; TSym=1 for a perfectly symmetric T wave, TSym<1 for slow-ascending/fast-descending T waves, T>1 for fast-ascending/slow-decending T waves).
For the pre-dose (baseline) ECGs, all parameters per time point were calculated as the averages of the triplicate ECGs. Computation of QTcB and QTcF was performed using the RR interval averaged from the total ECG acquisition duration (10 seconds) and in the case of the triplicate ECGs is based on the average QT and average HR of the replicate ECGs.
The over-reading cardiologist provided a clinical interpretation for each ECG at each time point. Each ECG was classified as Normal, Abnormal Clinically Insignificant (ACI), or Abnormal Clinically Significant (ACS). Results of this post-hoc analysis were used for an exposure-response evaluation for the changes in the electrophysiological parameters as a function of the concentration of KH176.

[4] = Phospholipidosis assessment in MAD study (urinary di-22:6-BMP, electron microscopy of peripheral leucocytes)
Description: Therefore, the presence of phospholipidosis was determined by the concentration of di-docosahexaenoyl (22:6)-bis(monoacylglycerol) phosphate (di-22:6-BMP) in a midstream urine sample and by electron microscopy of peripheral leucocytes at Day 1 and 7 in the MAD study (Pospischil A. et al, Exp. Toxicol Pathol 2010, 62:567-571).

Protein binding = type: in vitro ADME
CYP3A4 = CYP3A4 (Homo sapiens, UniProt P08684); experiment: In vitro metabolism; type: in vitro ADME
Chain of CYP3A4 (P08684 whole entry): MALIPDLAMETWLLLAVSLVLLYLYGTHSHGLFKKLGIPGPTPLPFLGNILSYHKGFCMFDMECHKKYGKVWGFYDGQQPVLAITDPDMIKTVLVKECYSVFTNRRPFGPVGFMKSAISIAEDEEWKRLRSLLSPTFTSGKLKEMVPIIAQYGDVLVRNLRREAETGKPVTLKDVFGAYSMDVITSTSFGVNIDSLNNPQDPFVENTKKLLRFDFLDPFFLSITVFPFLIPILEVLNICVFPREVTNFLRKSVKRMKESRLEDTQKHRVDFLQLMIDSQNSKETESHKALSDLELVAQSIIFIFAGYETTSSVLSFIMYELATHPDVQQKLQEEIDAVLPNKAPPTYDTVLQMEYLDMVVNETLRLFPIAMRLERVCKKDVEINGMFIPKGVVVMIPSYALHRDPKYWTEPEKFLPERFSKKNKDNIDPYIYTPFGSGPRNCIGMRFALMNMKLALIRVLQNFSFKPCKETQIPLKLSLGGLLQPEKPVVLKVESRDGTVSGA

PgP efflux pump = PgP efflux pump (Homo sapiens, UniProt P08183); experiment: In vitro efflux; type: in vitro ADME
Chain of PgP efflux pump (P08183 whole entry): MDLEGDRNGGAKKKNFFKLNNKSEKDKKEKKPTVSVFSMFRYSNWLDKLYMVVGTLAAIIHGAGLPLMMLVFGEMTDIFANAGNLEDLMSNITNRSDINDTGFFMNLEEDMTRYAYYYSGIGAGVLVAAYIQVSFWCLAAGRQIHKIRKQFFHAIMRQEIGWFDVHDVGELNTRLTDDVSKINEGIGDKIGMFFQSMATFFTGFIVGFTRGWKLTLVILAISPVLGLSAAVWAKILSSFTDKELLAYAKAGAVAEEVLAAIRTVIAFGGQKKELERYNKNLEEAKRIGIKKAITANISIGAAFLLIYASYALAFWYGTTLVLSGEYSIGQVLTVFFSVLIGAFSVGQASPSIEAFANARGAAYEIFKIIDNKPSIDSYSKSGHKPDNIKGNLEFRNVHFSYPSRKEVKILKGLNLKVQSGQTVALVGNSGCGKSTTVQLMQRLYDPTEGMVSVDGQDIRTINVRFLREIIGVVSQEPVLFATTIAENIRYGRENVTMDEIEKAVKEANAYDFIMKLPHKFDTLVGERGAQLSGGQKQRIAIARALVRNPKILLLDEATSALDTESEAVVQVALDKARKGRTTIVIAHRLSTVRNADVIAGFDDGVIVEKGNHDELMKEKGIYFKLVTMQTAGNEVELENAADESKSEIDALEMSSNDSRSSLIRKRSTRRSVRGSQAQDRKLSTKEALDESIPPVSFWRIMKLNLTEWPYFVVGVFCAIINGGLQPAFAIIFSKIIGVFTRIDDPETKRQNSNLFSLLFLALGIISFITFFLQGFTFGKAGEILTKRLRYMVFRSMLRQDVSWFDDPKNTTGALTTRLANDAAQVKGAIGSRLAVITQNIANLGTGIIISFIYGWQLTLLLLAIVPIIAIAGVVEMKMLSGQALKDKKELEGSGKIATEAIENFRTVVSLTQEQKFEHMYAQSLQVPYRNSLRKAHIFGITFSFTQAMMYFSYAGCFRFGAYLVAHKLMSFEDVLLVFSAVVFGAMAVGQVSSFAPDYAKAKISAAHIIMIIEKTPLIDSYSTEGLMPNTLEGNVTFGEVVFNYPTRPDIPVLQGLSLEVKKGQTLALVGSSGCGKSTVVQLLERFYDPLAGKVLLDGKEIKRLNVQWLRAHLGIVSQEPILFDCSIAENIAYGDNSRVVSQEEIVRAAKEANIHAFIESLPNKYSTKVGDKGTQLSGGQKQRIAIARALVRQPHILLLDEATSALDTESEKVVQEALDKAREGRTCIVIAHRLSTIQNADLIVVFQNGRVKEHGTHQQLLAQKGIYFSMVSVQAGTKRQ

For `Cc1c(C)c2c(c(C)c1O)CC[C@@](C)(C(=O)N[C@@H]1CCCNC1)O2.Cl` [KH176, (S)-6-hydroxy-2,5,7,8-tetramethyl-N-((R)-piperidin-3-yl)chroman-2-carboxamide hydrochloride], the EC50 [1] was 49 nM, the “KH176 exposure with no significant prolongation of the TpTe interval compared to placebo” value [2] was “lower than 500 ng/ml” and the “plasma concentrations at which effects on repolarization seem to start” value [2] was 500 to 1000 ng/mL. The “QTcF, largest median baseline increase” value ([2]; 1 h) was 46.8 ms, the “effect on QTcF” value ([3]; MAD 100 mg b.i.d.) was “no effect” and the “PR interval: largest median baseline increase” value ([3]; MAD 200 mg) was 12 ms. The “QTcF: largest individual increase” value ([3]; MAD 200 mg) was 28.3, the “QTcF: largest median baseline increase” value ([3]; MAD 200 mg) was 13.3 and the “T-wave symmetry index: largest individual increase” value ([3]; MAD 200 mg) was 0.6. The “T-wave symmetry index: largest median baseline increase” value ([3]; MAD 200 mg) was 0.45, the “TpTe interval: largest individual increase” value ([3]; MAD 200 mg) was 46 ms and the “TpTe interval: largest median baseline increase” value ([3]; MAD 200 mg) was 24 ms. For the same compound, the “QTcF, median maximum change from baseline” value ([3]; MAD 200 mg b.i.d., Day 5) was 13 ms, the “PR interval: largest median baseline increase” value ([3]; MAD 400 mg) was 19 ms and the “QRS interval: largest individual increase” value ([3]; MAD 400 mg) was 15.3 ms. For the same compound, the “QRS interval: largest median baseline increase” value ([3]; MAD 400 mg) was 9.7 ms, the “QTcF: largest individual increase” value ([3]; MAD 400 mg) was 43.7 and the “QTcF: largest median baseline increase” value ([3]; MAD 400 mg) was 29.2. For the same compound, the “T-wave symmetry index: largest individual increase” value ([3]; MAD 400 mg) was 0.99, the “T-wave symmetry index: largest median baseline increase” value ([3]; MAD 400 mg) was 0.63 and the “TpTe interval: largest individual increase” value ([3]; MAD 400 mg) was 62.7 ms. For the same compound, the “TpTe interval: largest median baseline increase” value ([3]; MAD 400 mg) was 42.3 ms, the “QTcF, median maximum change from baseline at trough” value ([3]; MAD 400 mg b.i.d., Day 6) was 29 ms and the “di-22:6-BMP in urine, change from Day 1 to Day 7” value (“di-22:6-BMP in urine, change” for short) ([4]; MAD group III (100 mg BID)) was 0.74-2.50 ng/mg creatinine. The “di-22:6-BMP in urine, change” value ([4]; MAD group IV (200 mg BID)) was −1.44-1.32 ng/mg creatinine, the “di-22:6-BMP in urine, change” value ([4]; MAD group V (400 mg BID)) was −0.69-1.46 ng/mg creatinine and the “prevalence of phospholipidosis in granulocytes or monocytes by electron microscopy” value ([4]; in vivo) was “No increased prevalence”. The fraction unbound (Protein binding) was 0.4 to 0.5, the metabolism (CYP3A4) was “metabolized by CYP3A4” and the efflux / excretion (PgP efflux pump) was “excreted by the PgP efflux pump”.
